# Where two headings read alike, the source gives them in different places.
# Key:
# [1] = Fluorescence and absorption response of boronic acid reporters to glucose in buffer solution (in vitro); conditions: for rise in fluorescence intensity on addition of glucose: glucose changed from zero to 300 mg/dL
# [2] = pH dependency of esculetin spectra (pKa determination); assay type: physicochemical
# Excerpt: The intensity of the fluorescence varies with pH but not the emission wavelength. The absorption spectrum did change with pH, implying the molecule could be used ratiometrically to measure pH using one monitoring wavelength and two excitation wavelengths. The relevant spectra are shown here together with a plot of absorption ratio as a function of pH (FIG. 45).
# [3] = Absorption and emission spectra of fluorescein and BeXan (Table 4); assay type: physicochemical
# Excerpt: The configuration of the dye is strongly influenced by the nature of the heteroatom substitution. The structure of the dye responsible for the absorption may be estimated by consideration of the photophysical properties of related compounds and calculations on them. For example comparison of fluorescein and BeXan type dyes are shown in FIGS. 21a and 21b, with structures shown in Schemes 11 and 12, respectively.
# [4] = hydroxyl group at position 3; cited from earlier work
# [5] = Glucose response rate in stirred cuvette, pH 8 phosphate buffer; conditions: 100 μL of 300 mg/dL glucose added; monitored every 15 seconds; ex 340 nm, em 440 nm
# Description: Arg-327 unprotected batches were prepared. One batch was supplied as a yellow powder and the other as a concentrated solution in deuterated methanol. A small sample of these materials was taken and dissolved in 3 ml of pH 8 phosphate buffer. The fluorescence of these materials was excited at 340 nm and the emission monitored at 440 nm. The fluorescence was monitored every 15 seconds in a stirred cuvette. After about 3 minutes 100 μL of 300 mg/dL glucose in pH 8 buffer was added. […] Similar results were obtained for both samples.
# [6] = system: PHK cells; assay: In-vitro detection in PHK cells loaded with reporter, two-photon fluorescent imaging; assay type: cell-based; conditions: reporter 50 micromolar; glucose increased to 300 mg/dl; EM 440 nm, excitation (2P) 705 nm
# Description: PHK cells were loaded with AF-327d reporter, at 50 micromolar concentration, in buffer. Fluorescence was measured using a two-photon fluorescent imaging system at approximately EM 440 nm, and excitation at (2P) 705 nm. Pictures taken 10 minutes apart show a slight change in fluorescence intensity upon increasing the glucose concentration to 300 mg/dl in the cell buffer medium. This is seen clearly, as a 20% decrease in time course of fluorescence.
# [7] = protonated, first (high energy) band
# [8] = protonated, second (low energy) band
molecule,measurement,setting,value
O=C(Nc1ccc2oc(=O)c3ccccc3c2c1)c1ccc(B(O)O)cc1 [AF-345],fluorescence emission (em),[1],435 nm
same,fluorescence excitation (ex),[1],330 nm
same,rise in fluorescence intensity on addition of glucose,[1],30%
"O=c1ccc2cc(O)c(O)cc2o1 [esculetin, 6,7 dihydroxycoumarin]",pKa,[2],7.5
fluorescein,Difference in energy of protonated absorption bands,[3],3.6 kcal/mol
same,Stokes shift for deprotonated bands,[3],4.1 kcal/mol
same,Stokes shift for protonated bands,[3],3.8 kcal/mol
same,"Band position relative to the high-energy protonated absorption band, Absorption",[3]; Deprotonated band,5.7 kcal/mol
same,"Band position relative to the high-energy protonated absorption band, Emission",[3]; Deprotonated band,9.8 kcal/mol
same,"Band position relative to the high-energy protonated absorption band, Absorption",[3]; High energy protonated band,0 kcal/mol
same,"Band position relative to the high-energy protonated absorption band, Emission",[3]; High energy protonated band,7.4 kcal/mol
same,"Band position relative to the high-energy protonated absorption band, Absorption",[3]; Low energy protonated band,3.6 kcal/mol
same,"Band position relative to the high-energy protonated absorption band, Emission",[3]; Low energy protonated band,9.9 kcal/mol
same,Absorption Energy,[3]; deprotonated,57.1 kcal/mol
same,Absorption Wavelength,[3]; deprotonated,501 nm
same,Emission Energy,[3]; deprotonated,53 kcal/mol
same,Emission Wavelength,[3]; deprotonated,540 nm
same,Absorption Energy,[3]; [7],62.8 kcal/mol
same,Absorption Wavelength,[3]; [7],455 nm
same,Emission Energy,[3]; [7],55.4 kcal/mol
same,Emission Wavelength,[3]; [7],516 nm
same,Absorption Energy,[3]; [8],59.2 kcal/mol
same,Absorption Wavelength,[3]; [8],483 nm
same,Emission Energy,[3]; [8],52.9 kcal/mol
same,Emission Wavelength,[3]; [8],541 nm
same,pKa,[4],6.4
O=C(Nc1ccc([N+](=O)[O-])cc1)c1ccc(B(O)O)cc1 [AF-339],response to glucose in vitro (in words),[1],weaker than AF-327
O=C(/C=C/c1ccc(B(O)O)cc1)c1cc2ccccc2oc1=O [AF-343],response to glucose in vitro (in words),[1],No fluorescence or glucose effect
O=C(Nc1ccc2c(C(F)(F)F)cc(=O)oc2c1)c1ccc(B(O)O)cc1 [AF-327d],fluorescence emission (em),[1],440 nm
same,fluorescence excitation (ex),[1],340 nm
same,long wavelength absorption maximum,[1],333 nm
same,response to glucose in vitro (in words),[1],stronger response to glucose than other published compounds
same,change of absorption spectrum at the excitation wavelength,[1]; as a function of glucose concentration,less than 10%
same,rise in fluorescence intensity on addition of glucose,[1],60%
same,Emission Wavelength,[1]; with and without added glucose at pH=7,440 nm
same,glucose response rate (fluorescence versus time),[5],increased immediately
same,decrease in time course of fluorescence,[6],20%
